Assay results from article PMC12354831 (Cell Death Discovery, 2025).

Key:
U87-MG cells = test: CCK-8 IC50 determination in U87-MG cells with or without GLUT3 KD; format: cell-based, human; conditions: GLUT3 KD vs control, CCK-8, 24 h drug treatment
Procedure: (§1) The GBM cell line was seeded into a 96-well plate at a density of 5 × 10^3 cells per well and incubated at 37 °C in a humidified atmosphere containing 5% CO2 overnight. […] Following 24 h of drug treatment, 10 µL of CCK-8 reagent was added to each well, and the cells were incubated for an additional 1 h at 37 °C. The absorbance was then measured at 450 nm using a microplate reader.
(§2) In this study, the experimental groups were designated as Group A (cells treated with temozolomide (TMZ) or capecitabine (CAPE)), the control group as Group B (cells treated with DMSO), and the blank control group as Group C ([…]). The cell viability rate was calculated using the formula: (A-C)/(B-C) × 100%, where A, B, and C represent the absorbance values of Group A, Group B, and Group C, respectively.

U251-MG cells = test: CCK-8 IC50 determination in U251-MG cells with or without GLUT3 OE; format: cell-based, human; conditions: GLUT3 OE vs control, CCK-8, 24 h drug treatment
Procedure: as §1, §2

SMILES | fold increase of IC50 on GLUT3 knockdown (U87-MG cells) | reduction of IC50 in GLUT3 overexpressing cells compared to control cells (U251-MG cells)
Nc1ccn([C@@H]2O[C@H](CO)[C@@H](O)[C@@H]2O)c(=O)n1 [cytarabine] | 4.3 fold | –
Nc1ccn([C@@H]2O[C@H](CO)[C@@H](O)C2(F)F)c(=O)n1 [GEM, gemcitabine] | ~ 1.6 fold | ~ 81.7%
